In ChEMBL document CHEMBL2163222 (J Med Chem, 2012):
pIC50: −log10 of the molar value. Calls of active or inactive are those of the source. No cut-off for these calls is given here.

Columns and labels:
OVCAR-8 = test: Growth inhibition of human OVCAR8 cells at 10 uM by NCI-60 cell inhibition assay; format: functional; conditions: read-out: GI
[1] = biological target: Dual specificity tyrosine-phosphorylation-regulated kinase 1A (Homo sapiens, UniProt Q13627); test: Inhibition of DYRK1A kinase using RBER-CHKtide substrate by radiometric protein kinase assay
SK-OV-3 = test: Growth inhibition of human SKOV3 cells at 10 uM by NCI-60 cell inhibition assay; format: functional; conditions: read-out: GI
M14 = test: Growth inhibition of human M14 cells at 10 uM by NCI-60 cell inhibition assay; format: functional; conditions: read-out: GI
HOP-92 = test: Growth inhibition of human HOP92 cells at 10 uM by NCI-60 cell inhibition assay; format: functional; conditions: read-out: GI
[2] = Growth inhibition of human Hs 578T cells at 10 uM by NCI-60 cell inhibition assay; format: functional; conditions: read-out: GI
[3] = Growth inhibition of human OE21 cells after 3 days by MTT assay; format: functional, cell-based; conditions: OE21, 72 h
U-373MG ATCC = test: Inhibition of eIF2 activity in human U373 cells at 0.5 uM after 4 hrs by Western blotting method; format: functional, cell-based
HCT-116 = test: Growth inhibition of human HCT116 cells at 10 uM by NCI-60 cell inhibition assay; format: functional; conditions: read-out: GI
OVCAR-4 = test: Growth inhibition of human OVCAR4 cells at 10 uM by NCI-60 cell inhibition assay; format: functional; conditions: read-out: GI
LOX IMVI = test: Growth inhibition of human LOXIMVI cells at 10 uM by NCI-60 cell inhibition assay; format: functional; conditions: read-out: GI
BT-549 = test: Growth inhibition of human BT549 cells at 10 uM by NCI-60 cell inhibition assay; format: functional; conditions: read-out: GI
MDA-MB-435 = test: Growth inhibition of human MDA-MB-435 cells at 10 uM by NCI-60 cell inhibition assay; format: functional; conditions: read-out: GI
HL-60(TB) = test: Growth inhibition of human HL-60(TB) cells at 10 uM by NCI-60 cell inhibition assay; format: functional; conditions: read-out: GI
Mus musculus = organism: Mus musculus; test: Toxicity in mouse assessed as drug tolerance; format: organism-based; conditions: in vivo
COLO 205 = test: Growth inhibition of human COLO205 cells at 10 uM by NCI-60 cell inhibition assay; format: functional; conditions: read-out: GI
Hs 683 = test: cells; conditions: Homo sapiens, Hs 683, 72 h
OVCAR-3 = test: Growth inhibition of human OVCAR3 cells at 10 uM by NCI-60 cell inhibition assay; format: functional; conditions: read-out: GI
A498 = test: Growth inhibition of human A498 cells at 10 uM by NCI-60 cell inhibition assay; format: functional; conditions: read-out: GI
HCT-15 = test: Growth inhibition of human HCT15 cells at 10 uM by NCI-60 cell inhibition assay; format: functional; conditions: read-out: GI
U-251 = test: Growth inhibition of human U251 cells at 10 uM by NCI-60 cell inhibition assay; format: functional; conditions: read-out: GI

For `Cc1c2c(cc[n+]1Cc1ccccc1)c1ccc(OCC3CCCCC3)cc1n2CC1CCCCC1.[Br-]`, the inhibition of growth at 10 µM (OVCAR-8) was -90.1%, the pIC50 [1] was 4.37 and the inhibition of growth at 10 µM (SK-OV-3) was -53.4%. For the same molecule, the inhibition of growth at 10 µM (M14) was -84.6%, the inhibition of growth at 10 µM (HOP-92) was -85.6% and the inhibition of growth at 10 µM [2] was -36.2%. The pIC50 [3] was 6.38, the inhibition (U-373MG ATCC) was “inactive” and the inhibition of growth at 10 µM (HCT-116) was -98.3%. For the same molecule, the inhibition of growth at 10 µM (OVCAR-4) was -94.3%, the inhibition of growth at 10 µM (LOX IMVI) was -95.6% and the inhibition of growth at 10 µM (BT-549) was -91%. For the same molecule, the inhibition of growth at 10 µM (MDA-MB-435) was -84.9%, the inhibition of growth at 10 µM (HL-60(TB)) was -53.4% and the Activity (Mus musculus) was “Toxic”. For the same molecule, the inhibition of growth at 10 µM (COLO 205) was -95.2%, the pIC50 (Hs 683) was 6.42 and the inhibition of growth at 10 µM (OVCAR-3) was -100%. It also gave an inhibition of growth at 10 µM (A498) of -97.4%, an inhibition of growth at 10 µM (HCT-15) of -81.7% and an inhibition of growth at 10 µM (U-251) of -92.5%.

Work on `Cc1c2c(cc[n+]1Cc1ccccc1)c1ccc(OCc3ccccc3)cc1n2Cc1ccccc1.[Br-]` yielded an inhibition of growth at 10 µM (OVCAR-8) of -70.9%, an inhibition of growth at 10 µM (SK-OV-3) of 7.67% and an inhibition of growth at 10 µM (M14) of -87.9%. For the same molecule, the inhibition of growth at 10 µM (HOP-92) was -67.8%, the inhibition of growth at 10 µM [2] was -35.9% and the pIC50 [3] was 5.89. The inhibition (U-373MG ATCC) was “Active”, the inhibition of growth at 10 µM (HCT-116) was -95.6% and the inhibition of growth at 10 µM (OVCAR-4) was -3.79%. It also gave an inhibition of growth at 10 µM (LOX IMVI) of -93.2%, an inhibition of growth at 10 µM (BT-549) of -90.4% and an inhibition of growth at 10 µM (MDA-MB-435) of -93.8%. For the same molecule, the inhibition of growth at 10 µM (HL-60(TB)) was -54.1%, the Activity (Mus musculus) was “Toxic” and the inhibition of growth at 10 µM (COLO 205) was -82.3%. For the same molecule, the pIC50 (Hs 683) was 6.30, the inhibition of growth at 10 µM (OVCAR-3) was -97.1% and the inhibition of growth at 10 µM (A498) was -34.5%. It also gave an inhibition of growth at 10 µM (HCT-15) of 39.2% and an inhibition of growth at 10 µM (U-251) of -80.2%.
